Experimental data as given in patent US20260297092A1, “PYRAZOLOPYRIMIDINE DERIVATIVES AS INHIBITORS OF NLRP3” (Takeda Pharmaceutical Company Limited, priority 2023, published 2026).

Experiments:
[1] = tested on: NLRP3 inflammasome (IL-1β production in THP-1 cells); assay: IL-1β TR-FRET Assay (percentage of inhibition at 300 nM, 6 μM or 10 μM); assay type: cell-based, human; conditions: Homo sapiens, LPS priming, ATP activation; for inhibition at 0.3 µM: THP-1, 300 nM, read-out: IL-1β inhibitory rate at 300 nM (%); for inhibition at 6 µM: THP-1, 6 μM, read-out: IL-1β inhibitory rate at 6 μM (%)
In short: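 THP-1 cells were differentiated with 25 ng/mL IFN-γ for 24 h, primed with 50 ng/mL LPS in serum-free medium for 24 h, then given compound for 30 min before 20 mM ATP for 2 h. Supernatant IL-1β was measured by HTRF after 16-24 h at room temperature. Inhibition was normalized between DMSO (high) and 3 μM MCC-950 (low).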

[2] = tested on: TNF-α (NF-κB pathway, THP-1 cells); assay: TNF-α Assay (IC50); assay type: cell-based, human; conditions: Homo sapiens, 600 ng/mL LPS, 3 hours
In short: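 THP-1 cells differentiated to macrophages with 25 ng/mL IFN for 24 h, plated 40,000/well in serum-free medium, preincubated with compounds 30 min at 37 °C, then stimulated with 600 ng/mL LPS for 3 h. Supernatant TNF-α measured by ELISA; IC50 from four-parameter logistic fit, 100% inhibition defined by TPCA-1.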

Row | IC50 [2] [µM] | SMILES | inhibition at 0.3 µM [1] [%] | inhibition at 6 µM [1] [%] | inhibition at 10 µM ([1]; THP-1, 10 μM, read-out: IL-1β inhibitory rate at 10 μM (%)) [%]
1 | > 30 | COc1nc2nn(-c3c(C)cc(Br)cc3C(F)F)cc2c(=O)[nH]1 [Example 214, 2-[4-bromo-2-(difluoromethyl)-6-methylphenyl]-6-methoxy-2,5-dihydro-4H-pyrazolo[3,4-d]pyrimidin-4-one] | 107 | – | –
2 | > 30 | COCCOc1nc2nn(-c3c(C)cc(C4(F)CC4)cc3C)cc2c(=O)[nH]1 [Example 246, 2-[4-(1-fluorocyclopropyl)-2,6-dimethylphenyl]-6-(2-methoxyethoxy)-2,5-dihydro-4H-pyrazolo[3,4-d]pyrimidin-4-one] | – | 101 | –
3 | > 30 | O=c1[nH]c([C@@H]2COCCO2)nc2nn(-c3c(F)cc(C4CC4)cc3C(F)F)cc12 (single isomer, unassigned) [Example 313, 2-[4-cyclopropyl-2-(difluoromethyl)-6-fluorophenyl]-6-[(2S)-1,4-dioxan-2-yl]-2,5-dihydro-4H-pyrazolo[3,4-d]pyrimidin-4-one or 2-[4-cyclopropyl-2-(difluoromethyl)-6-fluorophenyl]-6-[(2R)-1,4-dioxan-2-yl]-2,5-dihydro-4H-pyrazolo[3,4-d]pyrimidin-4-one] | – | 104 | –
4 | > 30 | COCCOc1nc2nn(-c3c(C)cc(Br)cc3C)cc2c(=O)[nH]1 [Example 175, 2-(4-bromo-2,6-dimethylphenyl)-6-(2-methoxyethoxy)-2,5-dihydro-4H-pyrazolo[3,4-d]pyrimidin-4-one] | 112 | – | –
5 | 0.279 | Cc1cc(C)c(-n2cc3c(=O)[nH]c(CC(C)(C)C)nc3n2)c(O)c1 [Example 68, 6-(2,2-dimethylpropyl)-2-(2-hydroxy-4,6-dimethylphenyl)-2,5-dihydro-4H-pyrazolo[3,4-d]pyrimidin-4-one] | 97 | – | –
6 | > 30 | CCOc1nc2nn(-c3c(Br)cc(C)c(F)c3F)cc2c(=O)[nH]1 [Example 97, 2-(6-bromo-2,3-difluoro-4-methylphenyl)-6-ethoxy-2,5-dihydro-4H-pyrazolo[3,4-d]pyrimidin-4-one] | 66 | – | –
7 | > 30 | Cc1nc(-c2nc3nn(-c4c(F)cc(C5CC5)cc4C(F)F)cc3c(=O)[nH]2)co1 [Example 298, 2-[4-cyclopropyl-2-(difluoromethyl)-6-fluorophenyl]-6-(2-methyl-1,3-oxazol-4-yl)-2,5-dihydro-4H-pyrazolo[3,4-d]pyrimidin-4-one] | – | 99 | –
8 | > 30 | CCOc1nc2nn(-c3ccc(CC)cc3O)c(C)c2c(=O)[nH]1 [Example 49, 6-ethoxy-2-(4-ethyl-2-hydroxyphenyl)-3-methyl-2,5-dihydro-4H-pyrazolo[3,4-d]pyrimidin-4-one] | 98 | – | –
9 | > 30 | Cc1cc(C2CC2)cc(C)c1-n1cc2c(=O)[nH]c(O[C@H]3CCOC3)nc2n1 [Example 286, 2-(4-cyclopropyl-2,6-dimethylphenyl)-6-{[(3S)-oxolan-3-yl]oxy}-2,5-dihydro-4H-pyrazolo [3,4-d]pyrimidin-4-one] | – | 98 | –
10 | > 30 | CCOc1nc2nn(-c3c(C)ccc(C)c3F)cc2c(=O)[nH]1 [Example 101, 6-ethoxy-2-(2-fluoro-3,6-dimethylphenyl)-2,5-dihydro-4H-pyrazolo[3,4-d]pyrimidin-4-one] | – | – | 95
11 | > 30 | Cc1cc(C2CC2)cc(C)c1-n1cc2c(=O)[nH]c([C@H]3C[C@@H](F)C3)nc2n1 [Example 249, 2-(4-cyclopropyl-2,6-dimethylphenyl)-6-[(1s,3s)-3-fluorocyclobutyl]-2,5-dihydro-4H-pyrazolo[3,4-d]pyrimidin-4-one] | – | 98 | –
12 | > 30 | CCOc1cc(C)c(-n2cc3c(=O)[nH]c(OCC)nc3n2)c(F)c1 [Example 160, 6-ethoxy-2-(4-ethoxy-2-fluoro-6-methylphenyl)-2,5-dihydro-4H-pyrazolo[3,4-d]pyrimidin-4-one] | 84 | – | –
13 | > 30 | Cc1cc(C)c(-n2cc3c(=O)[nH]c(C4(C)CCCCO4)nc3n2)c(O)c1 (centres unmarked) [Example 90, 2-(2-hydroxy-4,6-dimethylphenyl)-6-(2-methyloxan-2-yl)-2,5-dihydro-4H-pyrazolo[3,4-d]pyrimidin-4-one] | 85 | – | –
14 | > 30 | COCCOc1nc2nn(-c3c(C)cc(C)cc3O)cc2c(=O)[nH]1 [Example 22, 2-(2-hydroxy-4,6-dimethylphenyl)-6-(2-methoxyethoxy)-2,5-dihydro-4H-pyrazolo [3,4-d]pyrimidin-4-one] | 101 | – | –
15 | > 30 | CCOc1nc2nn(-c3c(C)cc(C4CC4)cc3C#N)cc2c(=O)[nH]1 [Example 179, 5-cyclo propyl-2-(6-ethoxy-4-oxo-4,5-dihydro-2H-pyrazolo[3,4-d]pyrimidin-2-yl)-3-methylbenzonitrile] | 102 | – | –
16 | 2.26 | Cc1cc(-c2nc3nn(-c4c(C)cc(C5CC5)cc4C)cc3c(=O)[nH]2)on1 [Example 275, 2-(4-cyclopropyl-2,6-dimethylphenyl)-6-(3-methyl-1,2-oxazol-5-yl)-2,5-dihydro-4H-pyrazolo[3,4-d]pyrimidin-4-one] | – | 101 | –
17 | > 30 | Cc1cc(C)c(-n2cc3c(=O)[nH]c(OCCCN(C)C)nc3n2)c(O)c1 [Example 115, 6-[3-(dimethylamino)propoxy]-2-(2-hydroxy-4,6-dimethylphenyl)-2,5-dihydro-4H-pyrazolo[3,4-d]pyrimidin-4-one] | 99 | – | –
18 | > 30 | CCOc1nc2nn(-c3c(F)cc(C)c(F)c3C)cc2c(=O)[nH]1 [Example 92, 2-(3,6-difluoro-2,4-dimethylphenyl)-6-ethoxy-2,5-dihydro-4H-pyrazolo[3,4-d]pyrimidin-4-one] | 82 | – | –
19 | > 30 | CCOc1nc2nn(-c3c(C)cc(Br)cc3F)cc2c(=O)[nH]1 [Example 24, 2-(4-bromo-2-fluoro-6-methylphenyl)-6-ethoxy-2,5-dihydro-4H-pyrazolo[3,4-d]pyrimidin-4-one] | 99 | – | –
20 | > 30 | CCOc1nc2nn(-c3c(C)cc(Br)cc3-n3cccn3)cc2c(=O)[nH]1 [Example 144, 2-[4-bromo-2-methyl-6-(1H-pyrazol-1-yl)phenyl]-6-ethoxy-2,5-dihydro-4H-pyrazolo[3,4-d]pyrimidin-4-one] | 96 | – | –
21 | > 30 | CO[C@@H]1CC[C@H]1c1nc2nn(-c3c(C)cc(C4CC4)cc3C)cc2c(=O)[nH]1 (racemic) [Example 253, racemic mixture of 2-(4-cyclopropyl-2,6-dimethylphenyl)-6-[(1R,2S)-2-methoxycyclobutyl]-2,5-dihydro-4H-pyrazolo[3,4-d]pyrimidin-4-one and 2-(4-cyclopropyl-2,6-dimethylphenyl)-6-[(1S,2R)-2-methoxycyclobutyl]-2,5-dihydro-4H-pyrazolo[3,4-d]pyrimidin-4-one] | – | 95 | –
22 | > 30 | COC[C@@H](C)Oc1nc2nn(-c3c(F)cc(C4CC4)cc3C(F)F)cc2c(=O)[nH]1 [Example 207, 2-[4-cyclopropyl-2-(difluoromethyl)-6-fluoro-phenyl]-6-{[(2R)-1-methoxypropan-2-yl]oxy}-2,5-dihydro-4H-pyrazolo[3,4-d]pyrimidin-4-one] | 98 | – | –
